The subject of this test is MCH receptors. In words: MCH receptor activity class (method not given). To be noted: MCH receptor; class by percent of control at 10^-7 M or IC50.

With `CN(C)c1nc(N[C@H]2CC[C@@H](NC(=O)Nc3cc(Cl)ccc3[N+](=O)[O-])CC2)nc2c1CCCC2` [compound 1901], the class is 3 (Class 3 The value of percent of control at 10^−7 M was more than 60% or the value of IC50 was more than 200 nM.).

With `Cc1ccc(F)cc1NC(=O)N[C@H]1CC[C@@H](Nc2nc3c(c(N(C)C)n2)CCCC3)CC1` [compound 1902], the class is 3 (Class 3 The value of percent of control at 10^−7 M was more than 60% or the value of IC50 was more than 200 nM.).

For `CN(C)c1nc(N[C@H]2CC[C@@H](NC(=O)Nc3ccc4c(c3)CCC4)CC2)nc2c1CCCC2` [compound 1903], the class is given as 3 (Class 3 The value of percent of control at 10^−7 M was more than 60% or the value of IC50 was more than 200 nM.). Consider `CN(C)c1nc(N[C@H]2CC[C@@H](NC(=O)Nc3ccc4c(c3)Cc3ccccc3-4)CC2)nc2c1CCCC2` [compound 1904], for which the class is recorded as 3 (Class 3 The value of percent of control at 10^−7 M was more than 60% or the value of IC50 was more than 200 nM.). Consider `CN(C)c1nc(N[C@H]2CC[C@@H](NC(=O)NC3c4ccccc4-c4ccccc43)CC2)nc2c1CCCC2` [compound 1905], for which the class was 3 (Class 3 The value of percent of control at 10^−7 M was more than 60% or the value of IC50 was more than 200 nM.). Consider `CN(C)c1nc(N[C@H]2CC[C@@H](NC(=O)NCCc3ccccc3)CC2)nc2c1CCCC2` [compound 1906], for which the class is listed as 3 (Class 3 The value of percent of control at 10^−7 M was more than 60% or the value of IC50 was more than 200 nM.). Turning to `CN(C)c1nc(N[C@H]2CC[C@@H](NC(=O)NC3CCCC3)CC2)nc2c1CCCC2` [compound 1907], the class is 3 (Class 3 The value of percent of control at 10^−7 M was more than 60% or the value of IC50 was more than 200 nM.). To `COC(=O)c1ccc(NC(=O)N[C@H]2CC[C@@H](Nc3nc4c(c(N(C)C)n3)CCCC4)CC2)cc1` [compound 1908] belongs 3 (Class 3 The value of percent of control at 10^−7 M was more than 60% or the value of IC50 was more than 200 nM.); to `CN(C)c1nc(N[C@H]2CC[C@@H](NC(=O)Nc3ccccc3OC(F)(F)F)CC2)nc2c1CCCC2` [compound 1909, N-(cis-4-{[4-(dimethylamino)-5,6,7,8-tetrahydroquinazolin-2-yl]amino}cyclohexyl)-N′-[2-(trifluoromethoxy)phenyl]urea], 2 (Class 2: The value of percent of control at 10^−7 M was from 40% to 60% or the value of IC′50 was from 50 nM to 200 nM.).

Turning to `CCCCOC(=O)c1ccccc1NC(=O)N[C@H]1CC[C@@H](Nc2nc3c(c(N(C)C)n2)CCCC3)CC1` [compound 1910], the class is reported as 3 (Class 3 The value of percent of control at 10^−7 M was more than 60% or the value of IC50 was more than 200 nM.). For `COC(=O)c1cc(NC(=O)N[C@H]2CC[C@@H](Nc3nc4c(c(N(C)C)n3)CCCC4)CC2)cc(C(=O)OC)c1` [compound 1911], the class is 3 (Class 3 The value of percent of control at 10^−7 M was more than 60% or the value of IC50 was more than 200 nM.).

In the case of `CN(C)c1nc(N[C@H]2CC[C@@H](NC(=O)Nc3ccc(OC(F)(F)F)cc3)CC2)nc2c1CCCC2` [compound 1912], the class is listed as 3 (Class 3 The value of percent of control at 10^−7 M was more than 60% or the value of IC50 was more than 200 nM.).

As for `CN(C)c1nc(N[C@H]2CC[C@@H](NC(=O)Nc3ccc4c(c3)C(F)(F)OC(F)(F)O4)CC2)nc2c1CCCC2` [compound 1913], the class is reported as 3 (Class 3 The value of percent of control at 10^−7 M was more than 60% or the value of IC50 was more than 200 nM.). `CN(C)c1nc(N[C@H]2CC[C@@H](NC(=O)NCCc3cccs3)CC2)nc2c1CCCC2` [compound 1914]: the class is 3 (Class 3 The value of percent of control at 10^−7 M was more than 60% or the value of IC50 was more than 200 nM.). As to `CN(C)c1nc(N[C@H]2CC[C@@H](NC(=O)Nc3ccccc3C#N)CC2)nc2c1CCCC2` [compound 1915], the class was 3 (Class 3 The value of percent of control at 10^−7 M was more than 60% or the value of IC50 was more than 200 nM.). Turning to `CN(C)c1nc(N[C@H]2CC[C@@H](NC(=O)Nc3cccs3)CC2)nc2c1CCCC2` [compound 1916], the class is on record as 3 (Class 3 The value of percent of control at 10^−7 M was more than 60% or the value of IC50 was more than 200 nM.).

On to `CN(C)c1nc(N[C@H]2CC[C@@H](NC(=O)Nc3ccsc3)CC2)nc2c1CCCC2` [compound 1917], for which the class is 3 (Class 3 The value of percent of control at 10^−7 M was more than 60% or the value of IC50 was more than 200 nM.). On to `CN(C)c1nc(N[C@H]2CC[C@@H](NC(=O)Nc3ccc(C(C)(C)C)cc3)CC2)nc2c1CCCC2` [compound 1918], for which the class is given as 3 (Class 3 The value of percent of control at 10^−7 M was more than 60% or the value of IC50 was more than 200 nM.). To `CN(C)c1nc(N[C@H]2CC[C@@H](NC(=O)Nc3ccc(-c4ccccc4)s3)CC2)nc2c1CCCC2` [compound 1919] belongs 3 (Class 3 The value of percent of control at 10^−7 M was more than 60% or the value of IC50 was more than 200 nM.); to `CN(C)c1nc(N[C@H]2CC[C@@H](NC(=O)Nc3cc(F)cc4c3OCOC4)CC2)nc2c1CCCC2` [compound 1920], 3 (Class 3 The value of percent of control at 10^−7 M was more than 60% or the value of IC50 was more than 200 nM.); to `CN(C)c1nc(N[C@H]2CC[C@@H](NC(=O)NC3CCN(C(=O)OCc4ccccc4)CC3)CC2)nc2c1CCCC2` [compound 1921], 3 (Class 3 The value of percent of control at 10^−7 M was more than 60% or the value of IC50 was more than 200 nM.). For `CN(C)c1ccc(NC(=O)N[C@H]2CC[C@@H](Nc3nc4c(c(N(C)C)n3)CCCC4)CC2)cc1` [compound 1922], the class was 3 (Class 3 The value of percent of control at 10^−7 M was more than 60% or the value of IC50 was more than 200 nM.). Consider `CN(C)c1nc(N[C@H]2CC[C@@H](NC(=O)Nc3cc(Cl)nc(Cl)c3)CC2)nc2c1CCCC2` [compound 1923], for which the class was 3 (Class 3 The value of percent of control at 10^−7 M was more than 60% or the value of IC50 was more than 200 nM.).

Take `Cc1noc(C)c1NC(=O)N[C@H]1CC[C@@H](Nc2nc3c(c(N(C)C)n2)CCCC3)CC1` [compound 1924]: the class is 3 (Class 3 The value of percent of control at 10^−7 M was more than 60% or the value of IC50 was more than 200 nM.). To `CC(=O)c1cccc(NC(=S)N[C@H]2CC[C@@H](Nc3nc4c(c(N(C)C)n3)CCCC4)CC2)c1` [compound 1925] belongs 3 (Class 3 The value of percent of control at 10^−7 M was more than 60% or the value of IC50 was more than 200 nM.); to `CC(=O)c1ccc(NC(=S)N[C@H]2CC[C@@H](Nc3nc4c(c(N(C)C)n3)CCCC4)CC2)cc1` [compound 1926], 3 (Class 3 The value of percent of control at 10^−7 M was more than 60% or the value of IC50 was more than 200 nM.); to `CN(C)c1nc(N[C@H]2CC[C@@H](NC(=S)Nc3cc(C(F)(F)F)cc(C(F)(F)F)c3)CC2)nc2c1CCCC2` [compound 1927], 3 (Class 3 The value of percent of control at 10^−7 M was more than 60% or the value of IC50 was more than 200 nM.). For `CN(C)c1nc(N[C@H]2CC[C@@H](NC(=S)NCc3ccccc3)CC2)nc2c1CCCC2` [compound 1928], the class was 3 (Class 3 The value of percent of control at 10^−7 M was more than 60% or the value of IC50 was more than 200 nM.). Consider `CN(C)c1nc(N[C@H]2CC[C@@H](NC(=S)Nc3cccc(Br)c3)CC2)nc2c1CCCC2` [compound 1929], for which the class is recorded as 3 (Class 3 The value of percent of control at 10^−7 M was more than 60% or the value of IC50 was more than 200 nM.).

For the molecule `CCCCNC(=S)N[C@H]1CC[C@@H](Nc2nc3c(c(N(C)C)n2)CCCC3)CC1` [compound 1930], the class is listed as 3 (Class 3 The value of percent of control at 10^−7 M was more than 60% or the value of IC50 was more than 200 nM.). To `CN(C)c1nc(N[C@H]2CC[C@@H](NC(=S)NC3CCCCC3)CC2)nc2c1CCCC2` [compound 1931] belongs 3 (Class 3 The value of percent of control at 10^−7 M was more than 60% or the value of IC50 was more than 200 nM.); to `CN(C)c1nc(N[C@H]2CC[C@@H](NC(=S)NC3CCCC3)CC2)nc2c1CCCC2` [compound 1932], 3 (Class 3 The value of percent of control at 10^−7 M was more than 60% or the value of IC50 was more than 200 nM.); to `CN(C)c1nc(N[C@H]2CC[C@@H](NC(=S)Nc3cccc(Cl)c3)CC2)nc2c1CCCC2` [compound 1933], 3 (Class 3 The value of percent of control at 10^−7 M was more than 60% or the value of IC50 was more than 200 nM.). To `CN(C)c1nc(N[C@H]2CC[C@@H](NC(=S)Nc3ccc(Cl)cc3)CC2)nc2c1CCCC2` [compound 1934] belongs 3 (Class 3 The value of percent of control at 10^−7 M was more than 60% or the value of IC50 was more than 200 nM.); to `CN(C)c1nc(N[C@H]2CC[C@@H](NC(=S)Nc3cc(F)ccc3F)CC2)nc2c1CCCC2` [compound 1935], 3 (Class 3 The value of percent of control at 10^−7 M was more than 60% or the value of IC50 was more than 200 nM.); to `CN(C)c1nc(N[C@H]2CC[C@@H](NC(=S)Nc3cc(Cl)ccc3Cl)CC2)nc2c1CCCC2` [compound 1936], 3 (Class 3 The value of percent of control at 10^−7 M was more than 60% or the value of IC50 was more than 200 nM.). Take `CN(C)c1nc(N[C@H]2CC[C@@H](NC(=S)Nc3ccc(Cl)c(Cl)c3)CC2)nc2c1CCCC2` [compound 1937]: the class is 3 (Class 3 The value of percent of control at 10^−7 M was more than 60% or the value of IC50 was more than 200 nM.). To `CN(C)c1nc(N[C@H]2CC[C@@H](NC(=S)Nc3c(Cl)cccc3Cl)CC2)nc2c1CCCC2` [compound 1938] belongs 3 (Class 3 The value of percent of control at 10^−7 M was more than 60% or the value of IC50 was more than 200 nM.); to `CCOc1ccc(NC(=S)N[C@H]2CC[C@@H](Nc3nc4c(c(N(C)C)n3)CCCC4)CC2)cc1` [compound 1939], 3 (Class 3 The value of percent of control at 10^−7 M was more than 60% or the value of IC50 was more than 200 nM.). For the molecule `CN(C)c1nc(N[C@H]2CC[C@@H](NC(=S)NCc3ccco3)CC2)nc2c1CCCC2` [compound 1940], the class is 3 (Class 3 The value of percent of control at 10^−7 M was more than 60% or the value of IC50 was more than 200 nM.).

Values taken from patent publication US20050197350A1, “Novel quinoline, tetrahydroquinazoline, and pyrimidine derivatives and methods of treatment related to the use thereof” (TAISHO PHARMACEUTICAL CO., LTD., priority 2003, published 2005).
